What was measured:
HCV RNA replicon ET = assay: HCV RNA replicon luciferase reporter assay, antiviral activity; assay type: cell-based; conditions: ET replicon cells, 72 h, LUC activity; for EC50: concentration reducing viral replication by 50%; for EC90: concentration reducing viral replication by 90%
HIV-1IIIB = assay: HIV MTS cytoprotection assay in CEM-SS cells; assay type: cell-based, human immunodeficiency virus-1; conditions: 6 days post-infection, concentration inhibiting virus replication by 50%
[1] = tested on: human hepatoma cell line ET; assay: Cytotoxicity in the replicon cell line, colorimetric assay of cell numbers; conditions: ET cells, 72 h; for IC50: read-out: Cytotoxicity IC50, concentration inhibiting cell viability by 50%; for IC90: read-out: Cytotoxicity IC90, concentration inhibiting cell viability by 90%
From the text: Compounds were examined in the human hepatoma cell line ET (lub ubi heo/ET), a HCV RNA replicon containing a stable luciferase (LUC) reporter. The HCV RNA replicon ET contains the 5′ end of HCV (with the HCV Internal Ribosome Entry Site (IRES) and the first few amino acids of the HCV core protein) which drives the production of a firefly luciferase (LUC), ubiquitin, and neomycin phosphotransferase (NeoR) fusion protein. Ubiquitin cleavage releases the LUC and NeoR proteins. The EMCV IRES element controls the translation of the HCV […] NS3-NS5. The NS3 protein cleaves the HCV polyprotein to release the mature NS3, NS4A, NS4B, NS5A and NS5B proteins that are required for HCV replication. At the 3′ end of the replicon is the authentic 3′ NTR of HCV. The activity of the LUC reporter is directly proportional to HCV replication levels and positive-control antiviral compounds produce a reproducible antiviral response using the LUC endpoint.
The compounds were dissolved in DMSO at five half-log concentrations each, ranging from either 0.02 to 2.0 μM, 0.03 to 3 μM, […], or 1 to 100 μM. Subconfluent cultures of the ET line were plated out into 96 well plates dedicated for the analysis of cell numbers (cytotoxicity) or antiviral activity and the next day the compounds were added to the appropriate wells. The cells were processed 72 h later when the cells were still subconfluent. […] The activity of the LUC reporter is directly proportional to HCV RNA levels in the human cell line. The HCV-replicon assay was validated in parallel experiments using interferon-alpha-2b as a positive control.

CEM-SS cells = assay: Compound cytotoxicity in the HIV MTS assay (cells plus drug only); assay type: cell-based, human; conditions: 50% inhibition of cell growth
Experimental: In this MTS cytoprotection assay, each experiment included cell control wells (cells only), virus control wells (cells plus virus), drug toxicity wells (cells plus drug only), drug colorimetric control wells (drug only) as well as experimental wells (drug plus cells plus virus). […] HIV-1RF was added to each well in a volume of 50 μL, the amount of virus determined to give approximately 90% cell killing at 6 days post-infection. At assay termination, assay plates were stained with the soluble tetrazolium-based dye MTS (CellTiter 96 Reagent, Promega) to determine cell viability and quantify compound toxicity. MTS is metabolized by the mitochondria enzymes of metabolically active cells to yield a soluble formazan product, providing a quantitative analysis of cell viability and compound cytotoxicity. The assay was validated in parallel experiments using Zidovudine (3′-azido-3′-deoxythymidine or AZT) as a positive control.

Compound	EC50 (HCV RNA replicon ET)	EC90 (HCV RNA replicon ET)	EC50 (HIV-1IIIB)	IC50 [1]	IC90 [1]	IC50 (CEM-SS cells)
3-(ethoxy)-4-(gamma-hydroxymethylleucine)cyclosporin [W]	130 nM	510 nM	680 nM			
3-(isopropoxy)-4-(gamma-hydroxymethylleucine)cyclosporin [V]	360 nM	1200 nM	440 nM			
C/C=C/C[C@@H](C)[C@@H](O)[C@H]1C(=O)N[C@@H](CC)C(=O)N(C)[C@H](OCCN2CCOCC2)C(=O)N(C)[C@@H](CC(C)C)C(=O)N[C@@H](C(C)C)C(=O)N(C)[C@@H](CC(C)C)C(=O)N[C@@H](C)C(=O)N[C@H](C)C(=O)N(C)[C@@H](CC(C)C)C(=O)N(C)[C@@H](CC(C)C)C(=O)N(C)[C@@H](C(C)C)C(=O)N1C [Compound L, 3-[2-(N-morpholine)ethoxy)cyclosporin]	280 nM	1250 nM	1930 nM	11500 nM	> 20000 nM	19500 nM
C/C=C/C[C@@H](C)[C@@H](O)[C@H]1C(=O)N[C@@H](CC)C(=O)N(C)[C@H](SCCOC)C(=O)N(C)[C@@H](CC(C)(C)O)C(=O)N[C@@H](C(C)C)C(=O)N(C)[C@@H](CC(C)C)C(=O)N[C@@H](C)C(=O)N[C@H](C)C(=O)N(C)[C@@H](CC(C)C)C(=O)N(C)[C@@H](CC(C)C)C(=O)N(C)[C@@H](C(C)C)C(=O)N1C [Compound N, 3-(2-methoxyethylthio)-4-(gamma-hydroxymethylleucine)cyclosporin]	< 200 nM	< 200 nM	350 nM	> 20000 nM	> 20000 nM	
C/C=C/C[C@@H](C)[C@@H](O)[C@H]1C(=O)N[C@@H](CC)C(=O)N(C)[C@H](SCCN(C)C)C(=O)N(C)[C@@H](CC(C)(C)O)C(=O)N[C@@H](C(C)C)C(=O)N(C)[C@@H](CC(C)C)C(=O)N[C@@H](C)C(=O)N[C@H](C)C(=O)N(C)[C@@H](CC(C)C)C(=O)N(C)[C@@H](CC(C)C)C(=O)N(C)[C@@H](C(C)C)C(=O)N1C [Compound O, 3-[(R)-2-(N,N-dimethylamino)ethylthio-Sar]-4-(gamma-hydroxymethylleucine)cyclosporin]	122 nM	300 nM	60 nM	13400 nM	> 20000 nM	20000 nM
C/C=C/C[C@@H](C)[C@@H](O)[C@H]1C(=O)N[C@@H](CC)C(=O)N(C)C(OC)C(=O)N(C)[C@@H](CC(C)(C)O)C(=O)N[C@@H](C(C)C)C(=O)N(C)[C@@H](CC(C)C)C(=O)N[C@@H](C)C(=O)N[C@H](C)C(=O)N(C)[C@@H](CC(C)C)C(=O)N(C)[C@@H](CC(C)C)C(=O)N(C)[C@@H](C(C)C)C(=O)N1C (stereo partly shown) [Compound T, 3-(methoxy)-4-(gamma-hydroxymethylleucine)cyclosporin]				> 2000 nM	> 2000 nM	18000 nM
C/C=C/C[C@@H](C)[C@@H](O)[C@H]1C(=O)N[C@@H](CC)C(=O)N(C)[C@H](OC(C)C)C(=O)N(C)[C@@H](CC(C)C)C(=O)N[C@@H](C(C)C)C(=O)N(C)[C@@H](CC(C)C)C(=O)N[C@@H](C)C(=O)N[C@H](C)C(=O)N(C)[C@@H](CC(C)C)C(=O)N(C)[C@@H](CC(C)C)C(=O)N(C)[C@@H](C(C)C)C(=O)N1C [D, 3-(isopropoxy)cyclosporin]	290 nM	1320 nM	1360 nM	17200 nM	> 20000 nM	> 20000 nM
C/C=C/C[C@@H](C)[C@@H](O)[C@H]1C(=O)N[C@@H](CC)C(=O)N(C)C(OCCCO)C(=O)N(C)[C@@H](CC(C)C)C(=O)N[C@@H](C(C)C)C(=O)N(C)[C@@H](CC(C)C)C(=O)N[C@@H](C)C(=O)N[C@H](C)C(=O)N(C)[C@@H](CC(C)C)C(=O)N(C)[C@@H](CC(C)C)C(=O)N(C)[C@@H](C(C)C)C(=O)N1C (stereo partly shown) [H, 3-(3-hydroxypropoxy)cyclosporin]	< 200 nM	370 nM	1380 nM	> 20000 nM	> 20000 nM	13300 nM
C/C=C/C[C@@H](C)[C@@H](O)[C@H]1C(=O)N[C@@H](CC)C(=O)N(C)C(SCC)C(=O)N(C)[C@@H](CC(C)C)C(=O)N[C@@H](C(C)C)C(=O)N(C)[C@@H](CC(C)C)C(=O)N[C@@H](C)C(=O)N[C@H](C)C(=O)N(C)[C@@H](CC(C)C)C(=O)N(C)[C@@H](CC(C)C)C(=O)N(C)[C@@H](C(C)C)C(=O)N1C (stereo partly shown) [P, 3-ethylthiocyclosporin]	230 nM	580 nM	160 nM	6150 nM	> 20000 nM	6150 nM
C=CCS[C@@H]1C(=O)N(C)[C@@H](CC(C)C)C(=O)N[C@@H](C(C)C)C(=O)N(C)[C@@H](CC(C)C)C(=O)N[C@@H](C)C(=O)N[C@H](C)C(=O)N(C)[C@@H](CC(C)C)C(=O)N(C)[C@@H](CC(C)C)C(=O)N(C)[C@@H](C(C)C)C(=O)N(C)[C@@H]([C@H](O)[C@H](C)C/C=C/C)C(=O)N[C@@H](CC)C(=O)N1C [Q, 3-propenylthiocyclosporin]	210 nM	620 nM	230 nM	18900 nM	> 20000 nM	18900 nM
C/C=C/C[C@@H](C)[C@@H](O)[C@H]1C(=O)N[C@@H](CC)C(=O)N(C)[C@H](SCCOC)C(=O)N(C)[C@@H](CC(C)C)C(=O)N[C@@H](C(C)C)C(=O)N(C)[C@@H](CC(C)C)C(=O)N[C@@H](C)C(=O)N[C@H](C)C(=O)N(C)[C@@H](CC(C)C)C(=O)N(C)[C@@H](CC(C)C)C(=O)N(C)[C@@H](C(C)C)C(=O)N1C [R, 3-[(2-methoxy)ethylthio]cyclosporin]	310 nM	590 nM	500 nM	11100 nM	> 20000 nM	17300 nM
C/C=C/C[C@@H](C)[C@@H](O)[C@H]1C(=O)N[C@@H](CC)C(=O)N(C)C(SC)C(=O)N(C)[C@@H](CC(C)(C)O)C(=O)N[C@@H](C(C)C)C(=O)N(C)[C@@H](CC(C)C)C(=O)N[C@@H](C)C(=O)N[C@H](C)C(=O)N(C)[C@@H](CC(C)C)C(=O)N(C)[C@@H](CC(C)C)C(=O)N(C)[C@@H](C(C)C)C(=O)N1C (stereo partly shown) [S, 3-(methylthio)-4-(gamma-hydroxymethylleucine)cyclosporin]		160 nM	90 nM	> 2000 nM	> 2000 nM	14000 nM
C=CCO[C@@H]1C(=O)N(C)[C@@H](CC(C)(C)O)C(=O)N[C@@H](C(C)C)C(=O)N(C)[C@@H](CC(C)C)C(=O)N[C@@H](C)C(=O)N[C@H](C)C(=O)N(C)[C@@H](CC(C)C)C(=O)N(C)[C@@H](CC(C)C)C(=O)N(C)[C@@H](C(C)C)C(=O)N(C)[C@@H]([C@H](O)[C@H](C)C/C=C/C)C(=O)N[C@@H](CC)C(=O)N1C [U, 3-(prop-2-ene-1-oxy)-4-(gamma-hydroxymethylleucine)cyclosporin]	90 nM	450 nM	110 nM	> 2000 nM	> 2000 nM	13400 nM
C/C=C/C[C@@H](C)[C@@H](O)[C@H]1C(=O)N[C@@H](CC)C(=O)N(C)C(OCCOC)C(=O)N(C)[C@@H](CC(C)(C)O)C(=O)N[C@@H](C(C)C)C(=O)N(C)[C@@H](CC(C)C)C(=O)N[C@@H](C)C(=O)N[C@H](C)C(=O)N(C)[C@@H](CC(C)C)C(=O)N(C)[C@@H](CC(C)C)C(=O)N(C)[C@@H](C(C)C)C(=O)N1C (stereo partly shown) [X, 3-[2-(methoxy)ethoxy]-4-(gamma-hydroxymethylleucine)cyclosporin]	480 nM	1500 nM	1000 nM	> 2000 nM	> 2000 nM	> 20000 nM
C/C=C/C[C@@H](C)[C@@H](O)[C@H]1C(=O)N[C@@H](CC)C(=O)N(C)[C@H](OCCCOC)C(=O)N(C)[C@@H](CC(C)(C)O)C(=O)N[C@@H](C(C)C)C(=O)N(C)[C@@H](CC(C)C)C(=O)N[C@@H](C)C(=O)N[C@H](C)C(=O)N(C)[C@@H](CC(C)C)C(=O)N(C)[C@@H](CC(C)C)C(=O)N(C)[C@@H](C(C)C)C(=O)N1C [Y, 3-[3-(methoxy)propoxy]-4-(gamma-hydroxymethylleucine)cyclosporin]	300 nM	950 nM	520 nM	> 2000 nM	> 2000 nM	> 20000 nM

Reference: patent US7718767B2, “3-ether and 3-thioether substituted cyclosporin derivatives for the treatment and prevention of hepatitis C infection” (Scynexis, Inc., priority 2006, dated 2010)
